Measurements published in ChEMBL document CHEMBL1201862, “PubChem BioAssay data set” (2004).
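Interpolation was linear, between the two tested concentrations surrounding the appropriate level; five concentrations were tested over 48 hours in 96-well plates. GI50: concentration for 50% inhibition of growth.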 Calls of active or inactive are those of the source. No stated cut-off is given here; in the data, active = GI50 up to about 1.1 µM and inactive = higher.

Key:
Assay in all cases: growth of human tumour cells (NCI), 48 h
SN12C = system: SN12C
COLO 205 = system: COLO 205
DMS-114 = system: DMS-114
NCI-H23 = system: NCI-H23
A549 = system: A549
KM-20L2 = system: KM-20L2
HCT-15 = system: HCT-15
CAKI-1 = system: CAKI-1
HOP-18 = system: HOP-18
SK-MEL-5 = system: SK-MEL-5
786-0 = system: 786-0
ACHN = system: ACHN
UACC-62 = system: UACC-62
LXFL 529 = system: LXFL 529
SK-OV-3 = system: SK-OV-3
XF498 = system: XF498
OVCAR-5 = system: OVCAR-5
SW-620 = system: SW-620
NCI-H522 = system: NCI-H522
EKVX = system: EKVX
UACC-257 = system: UACC-257
TK-10 = system: TK-10
NCI-H226 = system: NCI-H226
HOP-62 = system: HOP-62
SK-MEL-28 = system: SK-MEL-28
HL-60 = system: HL-60
HOP-92 = system: HOP-92
KM12 = system: KM12
SF-295 = system: SF-295
OVCAR-8 = system: OVCAR-8
MOLT-4 = system: MOLT-4
OVCAR-3 = system: OVCAR-3
SF-268 = system: SF-268
IGROV-1 = system: IGROV-1
RXF 393 = system: RXF 393
Malme-3M = system: Malme-3M
M19-MEL = system: M19-MEL
NCI-H460 = system: NCI-H460
SNB-19 = system: SNB-19
RPMI-8226 = system: RPMI-8226
RXF 631 = system: RXF 631
CCRF-CEM = system: CCRF-CEM
U-251 = system: U-251
DLD-1 = system: DLD-1
SK-MEL-2 = system: SK-MEL-2
HCT-116 = system: HCT-116
SR = system: SR
HCC 2998 = system: HCC 2998
HT-29 = system: HT-29
K562 = system: K562
SF-539 = system: SF-539
DMS-273 = system: DMS-273
LOX IMVI = system: LOX IMVI
SNB-78 = system: SNB-78
UO-31 = system: UO-31
A498 = system: A498
SNB-75 = system: SNB-75
OVCAR-4 = system: OVCAR-4
M14 = system: M14

Measured: GI50

COC(=O)CC(c1ccccc1)C1(c2ccccc2)SCCS1 (stereo unspecified)
inactive: SN12C 185 µM | COLO 205 > 290 µM | DMS-114 121 µM | NCI-H23 130 µM | A549 272 µM | KM-20L2 > 290 µM | CAKI-1 262 µM | HOP-18 > 290 µM | SK-MEL-5 189 µM | 786-0 > 290 µM | ACHN > 290 µM | UACC-62 142 µM | LXFL 529 92.7 µM | SK-OV-3 > 290 µM | XF498 > 290 µM | OVCAR-5 > 290 µM | SW-620 232 µM | NCI-H522 106 µM | EKVX > 290 µM | UACC-257 > 290 µM | TK-10 > 290 µM | NCI-H226 > 290 µM | HOP-62 266 µM | SK-MEL-28 > 290 µM | HL-60 141 µM | HOP-92 12.6 µM | KM12 108 µM | SF-295 > 290 µM | OVCAR-8 169 µM | MOLT-4 58.1 µM | OVCAR-3 55.1 µM | SF-268 150 µM | IGROV-1 > 290 µM | RXF 393 > 290 µM | Malme-3M > 290 µM | M19-MEL > 290 µM | NCI-H460 261 µM | SNB-19 > 290 µM | RPMI-8226 21.2 µM | RXF 631 161 µM | CCRF-CEM 105 µM | U-251 > 290 µM | DLD-1 > 290 µM | SK-MEL-2 261 µM | HCT-116 101 µM | SR 54.8 µM | HCC 2998 > 290 µM | HT-29 222 µM | K562 133 µM | SF-539 > 290 µM | DMS-273 104 µM | LOX IMVI 130 µM
94.8 µM: HCT-15

Cc1ccccc1/C=C/C(=O)c1ccccc1
inactive: SN12C > 10 µM | COLO 205 21.4 µM | DMS-114 20.9 µM | NCI-H23 17.6 µM | A549 22.5 µM | SNB-78 19.3 µM | UO-31 21.7 µM | KM-20L2 17.7 µM | CAKI-1 19.4 µM | SK-MEL-5 > 10 µM | A498 16.4 µM | 786-0 16.3 µM | ACHN 18.8 µM | UACC-62 19.9 µM | LXFL 529 21.6 µM | SK-OV-3 27.4 µM | XF498 17.1 µM | OVCAR-5 16.3 µM | SW-620 > 10 µM | NCI-H522 21.1 µM | EKVX 17.5 µM | UACC-257 22.5 µM | NCI-H226 20.5 µM | HOP-62 16.7 µM | SK-MEL-28 18.7 µM | HOP-92 20.5 µM | KM12 23.3 µM | OVCAR-8 25.2 µM | MOLT-4 18.7 µM | OVCAR-3 17.3 µM | SF-268 15.9 µM | SNB-75 19.5 µM | IGROV-1 25.2 µM | Malme-3M 18.1 µM | M19-MEL 25 µM | OVCAR-4 13.3 µM | NCI-H460 17.8 µM | SNB-19 16.5 µM | RPMI-8226 24.9 µM | RXF 631 19.4 µM | CCRF-CEM 29.6 µM | U-251 16.8 µM | DLD-1 22.4 µM | M14 16.1 µM | SK-MEL-2 > 10 µM | HCT-116 15.4 µM | SR 29 µM | HCC 2998 18.4 µM | HT-29 20.1 µM | K562 20.6 µM | SF-539 15.1 µM | DMS-273 25.8 µM
> 10 µM: HCT-15

C[C@@H]1CC2(N=CCS2)[C@]2(O)O[C@@H]3C[C@@]4(C)[C@H](C[C@H]3O[C@@H]2O1)C[C@H]1O[C@]12[C@@H]4[C@H](O)C(=O)[C@]1(C)C(C3=CC(=O)OC3)CC[C@]21O (stereo partly specified)
active: SN12C < 0.01 µM | COLO 205 0.0304 µM | DMS-114 < 0.01 µM | NCI-H23 < 0.01 µM | SNB-78 0.0132 µM | UO-31 0.0284 µM | CAKI-1 0.011 µM | A498 0.0138 µM | 786-0 < 0.01 µM | ACHN < 0.01 µM | UACC-62 0.0229 µM | LXFL 529 < 0.01 µM | SK-OV-3 0.0314 µM | XF498 0.0187 µM | NCI-H522 < 0.01 µM | NCI-H226 0.0292 µM | HOP-62 < 0.01 µM | SK-MEL-28 0.0255 µM | HL-60 0.0123 µM | HOP-92 0.0306 µM | MOLT-4 < 0.01 µM | SF-268 < 0.01 µM | SNB-75 0.0289 µM | IGROV-1 0.0254 µM | Malme-3M 0.0129 µM | M19-MEL 0.0282 µM | OVCAR-4 < 0.01 µM | RPMI-8226 0.022 µM | RXF 631 0.0251 µM | CCRF-CEM < 0.01 µM | DLD-1 < 0.01 µM | M14 0.0227 µM | SK-MEL-2 0.0264 µM | HCT-116 < 0.01 µM | SR < 0.01 µM | HCC 2998 0.0281 µM | K562 0.0194 µM | SF-539 < 0.01 µM | DMS-273 < 0.01 µM | LOX IMVI 0.0114 µM
